Broadly, the half-life is how long it takes for the measured level to halve. Read a low half-life as fast loss. For orientation: pKi means the negative decadic logarithm of the Ki, by convention in mol/L. Lower therefore signals a high Ki.

Data on 9 molecules can be found in patent US20260265334A1, “STAPLED PEPTIDES” (THE FLOREY INSTITUTE OF NEUROSCIENCE AND MENTAL HEALTH, priority 2023, published 2026).

Data set [1] has as its target T1, RXFP3 (Homo sapiens, UniProt Q9NSD7).
T1 construct: expressed in transfected cells
T1 sequence (Q9NSD7 1-469): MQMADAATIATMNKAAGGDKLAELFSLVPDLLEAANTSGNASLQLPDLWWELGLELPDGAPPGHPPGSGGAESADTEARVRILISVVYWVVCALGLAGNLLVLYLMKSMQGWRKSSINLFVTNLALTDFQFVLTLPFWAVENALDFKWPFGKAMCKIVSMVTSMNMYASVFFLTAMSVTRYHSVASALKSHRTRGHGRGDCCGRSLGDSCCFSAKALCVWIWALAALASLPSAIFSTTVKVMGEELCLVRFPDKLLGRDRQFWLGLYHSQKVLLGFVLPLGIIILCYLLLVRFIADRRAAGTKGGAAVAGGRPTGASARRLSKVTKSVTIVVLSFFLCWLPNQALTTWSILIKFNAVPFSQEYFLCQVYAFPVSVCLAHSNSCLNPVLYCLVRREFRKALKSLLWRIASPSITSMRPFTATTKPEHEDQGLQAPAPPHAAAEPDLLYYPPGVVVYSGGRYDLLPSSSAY
The data set can be described thus: Eu-H3B1-22R competition binding assay in CHO-K1-RXFP3 cells. The conditions noted are these: 5 nM Eu-H3B1-22R, mean ± SEM (n); for Ki: Table 2, read-out: Eu-H3B1-22R pKi (converted). As to the method:
An Eu-H3B1-22R competition binding assay was conducted in CHO-K1-RXFP3 cells.
(§1) Competition binding curves for each peptide were performed in triplicate and each experiment was performed independently at least three times. Fluorescent measurements were carried out at excitation of 340 nm and emission of 614 nm on a BMG POLARstar plate reader (BMG Labtech, Melbourne, Australia). Pooled data were presented as mean±S.E.M. of specific binding and are fitted using a one-site binding curve in GraphPad Prism version 8 (GraphPad Inc., San Diego, USA). Statistical analyses were conducted using one-way analysis of variance with uncorrected Fisher's least significant difference (LSD) post-hoc analysis in GraphPad Prism version 9.
(§2) Competition binding and cAMP activity assay were conducted by a procedure analogous to that described above for Example 3. The results are shown in FIG. 24 (RXFP3) and FIG. 25 (RXFP4).

The target in data set [2] is T2, RXFP4 (Homo sapiens, UniProt Q8TDU9). The data set can be described thus: Eu-R3/I5 competition binding assay in CHO-K1-RXFP4 cells. More on the design: expressed in transfected cells. The conditions noted are these: RXFP4, CHO-K1-RXFP4 cells, 5 nM Eu-R3/I5, Table 3. As to the method:
An Eu-R3/15 competition binding assay in CHO-K1-RXFP4 cells was carried out.
as §1
(§3) An additional analogue of INSL5 was utilised as a control, INSL5-A13, having an A chain (SEQ ID NO: 9) and a B chain (SEQ ID NO: 10) with a first disulfide bond between Cys 1 of the A chain and Cys 7 of the B chain, and a second disulfide bond between Cys 14 of the A chain and Cys 19 of the B chain:
as §2

Data set [3] has as its target T2, RXFP4. The data set can be described thus: Inhibition of forskolin-induced cAMP activity in CHO-K1-RXFP4 cells (pCRE β-galactosidase reporter). The class given is cell-based. More on the design: expressed in transfected cells. The note with it: for cAMP pEC50: RXFP4, CHO-K1-RXFP4 cells, 1 μM forskolin, 6 hours, Table 3. As to the method:
For agonist assays, cells were stimulated with forskolin (5 μM for RXFP3, 1 μM for RXFP4)±increasing concentrations of each peptide for 6 hours. Data were expressed as the % forskolin activity, whereby 100% was defined as forskolin alone and 0% as maximum agonist stimulation (1 μM Analogue 2 for RXFP3 and 1 μM Analogue 13 for RXFP4). Data were analysed and plotted using GraphPad Prism 9 and are expressed as the mean±SEM of the pooled data. Statistical analysis was conducted using one-way ANOVA with Uncorrected Fisher's LSD post-hoc analysis using GraphPad Prism 9.
as §3, §2

In data set [4] the target is T1, RXFP3. As to the kind of experiment: Inhibition of forskolin-induced cAMP activity in CHO-K1-RXFP3 cells (pCRE β-galactosidase reporter). The data set is classed as cell-based. The note with it: 5 μM forskolin, 6 hours; for EC50: Table 2, read-out: cAMP pEC50 (converted). On the procedure:
Since RXFP3 is coupled to Gi/o proteins, peptides were tested for their ability to activate RXFP3 as measured via their ability to inhibit forskolin-induced cAMP activity in CHO-K1-RXFP3 or CHO-K1-RXFP4 cells transfected with a pCRE (cAMP Response Element) β-galactosidase reporter plasmid (as described in Belgi, A et al., Structure and function relationship of murine insulin-like peptide 5 (INSL5): free C-terminus is essential for RXFP4 receptor binding and activation. Biochemistry 2011, 50 (39), 8352-61; and Haugaard-Kedstrom, L. M et al., Synthesis and pharmacological characterization of a europium-labelled single-chain antagonist for binding studies of the relaxin-3 receptor RXFP3. Amino Acids 2015, 47 (6), 1267-71). For agonist assays, cells were stimulated with forskolin (5 μM for RXFP3, 1 μM for RXFP4)±increasing concentrations of each peptide for 6 hours. Data were expressed as the % forskolin activity, whereby 100% was defined as forskolin alone and 0% as maximum agonist stimulation (1 μM Analogue 2 for RXFP3 and 1 μM Analogue 13 for RXFP4). Data were analysed and plotted using GraphPad Prism 9 and are expressed as the mean±SEM of the pooled data. Statistical analysis was conducted using one-way ANOVA with Uncorrected Fisher's LSD post-hoc analysis using GraphPad Prism 9.
as §2

The nature of data set [5]: In vitro serum stability in human serum at 37° C. The conditions noted are these: serum.
The target in data set [6] is T2, RXFP4. The data set can be described thus: SmBiT-R3/I5 NanoBiT competition binding assay, HEK-LgBiT-RXFP4 membrane fractions. More on the design: expressed in transfected cells. The conditions noted are these: RXFP4, 2 nM SmBiT-R3/I5; Table 5; read-out: SmBiT R3/I5 pKi (converted). On the procedure: Furthermore, a SmBiT-R3/15 competition binding assay was performed. All peptides were examined for their binding affinity to RXFP4 utilizing a competition NanoLuc® Binary Technology (NanoBiT™) binding assay. Briefly, HEK-LgBiT-RXFP4 crude membrane fractions (25 μg protein) were incubated with 2 nM SmBiT-R3/15 and increasing concentrations of competing peptides in binding buffer (0.5% BSA, 20 mM HEPES pH 7.5, 1.5 mM CaCl2), 50 mM NaCl) in a total of 100 μL in 96-well Optiplates (PerkinElmer, Waltham MA, USA). After 1 hour of shaking at room temperature, 1.25 μM final concentration of coelenterazine 400a was added, and luminescence measurements were recorded using a MicroBeta Microplate Counter (PerkinElmer, Waltham MA, USA). Each concentration-response curve was tested in triplicate, and each experiment was repeated at least three times with data being expressed as the mean±standard error of the mean (S.E.M) % specific.

Data set [7] has as its target T3, RXFP3 (relaxin family peptide receptor 3) on CHO-K1-RXFP3 cells (UniProt Q9NSD7 1-469, limits assumed).
T3 sequence (looked up): T1 sequence (Q9NSD7 1-469)
As to the kind of experiment: cell-based or functional assay.

Data set [8] deals with T4, RXFP4 (relaxin family peptide receptor 4) on CHO-K1-RXFP4 cells (UniProt Q8TDU9 1-374, limits assumed).
T4 construct: whole, on cells; also called INSL5 receptor
T4 sequence (Q8TDU9 whole entry): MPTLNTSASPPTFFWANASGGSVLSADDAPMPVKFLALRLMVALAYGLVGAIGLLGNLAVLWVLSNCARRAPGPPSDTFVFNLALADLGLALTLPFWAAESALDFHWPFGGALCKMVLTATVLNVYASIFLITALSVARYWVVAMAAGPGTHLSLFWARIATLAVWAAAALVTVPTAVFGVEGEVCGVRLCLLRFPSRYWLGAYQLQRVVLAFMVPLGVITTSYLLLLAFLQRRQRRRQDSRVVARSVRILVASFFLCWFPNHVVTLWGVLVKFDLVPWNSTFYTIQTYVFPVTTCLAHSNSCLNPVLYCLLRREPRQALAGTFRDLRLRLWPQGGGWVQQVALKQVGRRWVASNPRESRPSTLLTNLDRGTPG
As to the kind of experiment: competition with Eu-R3/I5 on CHO-K1-RXFP4 cells.

The target in data set [9] is T3, RXFP3 (relaxin family peptide receptor …). As to the kind of experiment: competition with Eu-H3B1-22R on CHO-K1-RXFP3 cells.
Data set [10] has the same target. As to the kind of experiment: cell-based or functional assay. The source holds these as a separate data set.
For data set [11], the target named is T4, RXFP4 (relaxin family peptide receptor …). As to the kind of experiment: cell-based or functional assay.
For data set [12] the target is unchanged. As to the kind of experiment: competition with 5 nM Eu-DTPA-R3/I5 on CHO-K1-RXFP4 cells.

Bridge positions count the residues as written; N and C are the ends. Square brackets hold non-standard residues; d marks the D form. Ends that are not written are not given here. Peptide text beside a SMILES is read from it. I, II: the chains in the order shown. ξ: configuration not given here. αMeF = C[C@](N)(Cc1ccccc1)C(=O)O; ξF = NC(Cc1ccccc1)C(=O)O Where only a bound is given, the exact number is not on record here.

T2 sequence (Q8TDU9 whole entry): as above

On to `CC[C@H](C)[C@H](NC(=O)[C@H](Cc1ccccc1)NC(=O)C(Cc1ccccc1)NC(=O)[C@H](CCCNC(=N)N)NC(=O)CNC(=O)[C@@H](N)CO)C(=O)N[C@@H](CCCNC(=N)N)C(=O)NC(Cc1ccccc1)C(=O)N[C@H](C(=O)N[C@H](C(=O)N[C@@H](Cc1ccccc1)C(=O)N[C@H](C(=O)N[C@@H](CO)C(=O)NCC(=O)NCC(=O)N[C@@H](CO)C(=O)N[C@@H](CCCNC(=N)N)C(=O)N[C@@H](Cc1c[nH]c2ccccc12)C(=O)O)[C@@H](C)O)[C@@H](C)CC)C(C)C` (stereo partly drawn) [H3B10-27(13/17F)] (H-SGR[ξF]FIR[ξF]VIFTSGGSRW-OH; N-terminus assumed), for which, at RXFP3 [1], the Ki is > 10 µM. The “Eu-R3/I5 pKi” value on RXFP4 [2] was “No binding (3)”. In addition, the “cAMP pEC50” value on RXFP4 [3] is on record as “No activity (4)”. At RXFP3 [4], the EC50 is > 10 µM.
Take SGREFIRAVIFTSGGSRW-OH [H3B10-27]: in data set [5], the half-life at 400 µg/mL was ~20 min. Moreover, the Ki on RXFP3 [1] and on RXFP4 [2] (read-out: Eu-R3/I5 pKi (converted)) was > 10 µM throughout. The “cAMP pEC50” value on RXFP4 [3] was “No activity (3)”. Also, the EC50 at RXFP3 [4] was > 10 µM.
As for `CC[C@H](C)[C@@H]1NC(=O)[C@H](Cc2ccccc2)NC(=O)[C@H](CCC(=O)O)NC(=O)[C@H](CCCNC(=N)N)NC(=O)CNC(=O)[C@@H](NC(=O)[C@H](CC(C)C)NC(=O)[C@H](CCCNC(=N)N)NC(=O)[C@@H](NC(=O)CNC(=O)[C@H](Cc2ccc(O)cc2)NC(=O)[C@@H]2CCCN2C(=O)[C@H](C)NC(=O)[C@H](C)NC(=O)[C@@H](N)CCCNC(=N)N)C(C)C)CSSC[C@@H]2NC(=O)[C@@H](NC(=O)[C@H](CO)NC(=O)[C@H](CO)NC(=O)[C@H](CO)NC(=O)[C@H](CC(C)C)NC(=O)CNC(=O)[C@H](C)NC(=O)[C@H](CC(C)C)NC(=O)[C@@H](NC(=O)[C@@H](N)CC(=O)O)C(C)C)CSSC[C@H](NC(=O)CNC(=O)[C@H](Cc3c[nH]c4ccccc34)NC(=O)[C@H](CCCCN)NC2=O)C(=O)N[C@@H](CO)C(=O)N[C@@H](CCCCN)C(=O)N[C@@H](CO)C(=O)N[C@@H](CCC(=O)O)C(=O)N[C@@H]([C@@H](C)CC)C(=O)N[C@@H](CO)C(=O)N[C@@H](CO)C(=O)N[C@@H](CC(C)C)C(=O)N[C@H](C(=O)O)CSSC[C@@H](C(=O)NCC(=O)NCC(=O)N[C@@H](CO)C(=O)N[C@@H](CCCNC(=N)N)C(=O)N[C@@H](Cc2c[nH]c3ccccc23)C(=O)O)NC(=O)[C@H]([C@@H](C)O)NC(=O)[C@H](Cc2ccccc2)NC(=O)[C@H]([C@@H](C)CC)NC(=O)[C@H](C(C)C)NC(=O)[C@H](C)NC(=O)[C@H](CCCNC(=N)N)NC1=O` [H3 relaxin], at RXFP3 [1] (Table 2), the “Eu-H3B1-22R pKi” value is recorded as 7.64 ± 0.09 (4)^. In addition, the “cAMP pEC50” value at RXFP4 [3] was 8.94 ± 0.13 (4); at RXFP3 [4] (Table 2), 9.08 ± 0.07 (5).
As to `CC[C@H](C)[C@H](NC(=O)[C@H](Cc1ccc(O)cc1)NC(=O)[C@@H](NC(=O)[C@@H](NC(=O)[C@](C)(Cc1ccccc1)NC(=O)[C@H](CCCNC(=N)N)NC(=O)[C@@H](NC(=O)[C@H](Cc1ccc(O)cc1)NC(=O)[C@](C)(Cc1ccccc1)NC(=O)[C@H](CC(C)C)NC(=O)CNC(=O)[C@@H](N)CO)[C@@H](C)CC)C(C)C)[C@@H](C)CC)C(=O)N[C@@H](CCC(=O)O)C(=O)NCC(=O)NCC(=O)N[C@@H](CO)C(=O)N[C@@H](CCCNC(=N)N)C(=O)N[C@@H](Cc1c[nH]c2ccccc12)C(=O)O` [πI5B7-24-GG-S19E] (H-SGL[αMeF]YIR[αMeF]VIYIEGGSRW-OH; N-terminus and C-terminus assumed), at RXFP4 [6], the Ki is 0.00741 µM. Further, the EC50 on RXFP4 [3] (RXFP4, Table 5, read-out: cAMP pEC50 (converted)) is 0.0407 µM.
Consider SGREFIRAVIFTSGGSRW [H3B10-27 (native B10-27)], for which the “cAMP pEC50” value in [7] is < 5.
For SGREFIRAVIFTSR (14 residues) [H3B10-22R13/17EA (Formula XII, truncated form of H3B1-22R)], the binding result in data set [8] is listed as “no binding”. The pKi in [9] was 6.08.
For SGRFFIRFVIFTSR (14 residues) [H3B10-22R13/17FF (Formula XIII, non-alpha-methylated analogue of Formula X)], the binding result in data set [8] is listed as “no binding”. The pKi in data set [9] amounted to 6.67.
In the case of RAAPYGVRLSGREFIRAVIFTSR (23 residues) [H3B1-22R (Formula XI, known single chain antagonist of RXFP3)], the “RXFP3 Antagonist potency pIC50” value in data set [10] was 6.25. For the same molecule, in data set [8], the binding result was “no binding”. This molecule returned a pKi in data set [9] of 7.64.

B1: Human insulin-like peptide 7 (INSL7), also known as human relaxin-3 (H3 relaxin) (ligand)
chain 1: DVLAGLSSSCCKWGCSKSEISSLC
chain 2: RAAPYGVRLCGREFIRAVIFTCGGSRW
modifications: disulfide I:10-I:15; not fully specified; cysteine pairing not given here
Take B1: in [11], the “cAMP pEC50” value came out at 8.94. The molecule further displayed a negative-log Ki (pKi) in data set [12] of 8.42.
